Test results published in US20160097044A1, “Antimicrobial Enzyme Fusions Reduce Resistance and Kill Intracellular Staphylococcus aureus” (The United States of America, as Represented by the …, priority 2014, published 2016).

Legend:
[1] = test system: intracellular S. aureus Newbould 305 in bovine mammary epithelial cell line (MAC-T); test: Intracellular S. aureus eradication assay in MAC-T cells; format: cell-based; settings: 25 μg in 1 ml DMEM, 2.5 h
Description: (§1) FIGS. 5a-5e depict peptidoglycan hydrolase-protein transduction domain (PGH-PTD) eradication of intracellular S. aureus in cultured cells. Cultured cells were infected, treated with gentamicin to kill extracellular S. aureus, and then treated with the peptidoglycan hydrolases indicated. All results are standardized to the gentamicin (GENT) only control. Nomenclature of the peptidoglycan hydrolase constructs is as in FIG. 1. Asterisks indicate statistical significance detected with single factor ANOVA (α=0.05) with paired t-test posthoc analyses α=0.05 adjusted with Sidák correction for multiple comparisons (for all cases p<0.01). […] Error bars represent SEM. […] Yellow staining in the combined panel represents intracellular co-localization (in a single plane as determined by z-stack analysis) of both S. aureus and K-L-PTD1 (blue arrow). […]
(§2) Three similar intracellular S. aureus eradication assays from three different labs were optimized for (A) a cultured bovine mammary epithelial cell line (MAC-T, Nexia Biotechnologies, Quebec, Canada; Almeida, supra), (B) primary C57BL/6 mouse-derived osteoblasts (mOBs) (McCall et al. 2008. J. Bone Miner. Res. 23: 30-40) or (C) human brain microvascular endothelial cells (hBMEC; Stins, supra). […] The cell lysate was subjected to serial dilution plating, and the resultant CFUs were counted and normalized to the gentamicin control for each assay. […]

[2] = test system: intracellular S. aureus strain ISP479C in human brain microvascular endothelial cells (hBMEC); test: Intracellular S. aureus eradication assay in hBMEC; format: cell-based; settings: 5 μg/ml, 1 h
Description: as §1, §2

[3] = test system: S. aureus Newbould 305; test: Turbidity reduction assay; format: cell-based; settings: 1 μM enzyme, cells at OD600nm 1.0, FIG. 6a
Procedure: (§3) FIG. 6a depicts the specific activity of peptidoglycan hydrolase fusion constructs in vitro in a turbidity reduction assay with S. aureus Newbould 305 resuspended in lysis buffer to an OD600nm of 1.0 and treated with 1 μM final concentrations of each peptidoglycan hydrolase. The maximum specific activity for three experiments are represented as an average with SEM error bars. FIG. 6b depicts the bacterial burden in mice with mastitis treated with recombinant peptidoglycan hydrolases. Colony Forming Units (CFUs) from infected murine mammary glands following a single treatment with 50 μl of 25 μM peptidoglycan hydrolase (1.25 nmol). Each data point represents the average of duplicate bacterial platings. The horizontal bars represent the average CFU/mg for each group. FIG. 6c illustrates the TNFα response in mice with mastitis that were treated with peptidoglycan hydrolases. Data represents a minimum of 7 measurements in duplicate. Log TNFα was used for statistical analysis. Single asterisks indicate a significant difference from buffer control (p<0.05); double asterisks indicate a significant difference from the parental enzyme (p<0.05).
FIG. 7 depicts a turbidity reduction assay of select peptidoglycan hydrolases against S. aureus Newbould 305. Bacterial cells were resuspended in lysis buffer to an OD600nm of 1.0 and lysed with 1 μM final concentrations of each peptidoglycan hydrolase. The maximum rate of ΔOD of three experiments are represented as an average with error bars representing SEM. Double asterisks indicate significant difference from parental. Mean comparisons were performed with one way ANOVA (P=3.3×10^−5) with t test post hoc analysis with Sidák adjusted alpha (p<0.01).

[4] = test system: S. aureus Newbould 305; test: Murine model of mastitis, bacterial load; format: in vivo, C57BL6/SJL mice; settings: for bacterial load / clearance of mammary glands (in words): single 1.25 nmoles intramammary infusion 30 minutes post infection, 18 h
Procedure: as §3
To evaluate the efficacy of purified, individually administered peptidoglycan hydrolases in a murine model of bovine mastitis, female C57BL6/SJL mice were challenged by the intramammary route with 100 CFU S. aureus Newbould 305 in 50 μl buffer. A single 1.25 nmoles intramammary infusion of each desired peptidoglycan hydrolase (50 μl of a 25 μM solution) or 50 μl PBS was given 30 minutes post infection [with up to six glands treated per animal, each gland receiving a unique treatment] as described earlier (Schmelcher et al. 2012. Appl. Environ. Microbiol. 78:2297-2305; Kerr et al. 2001. Nat. Biotechnol. 19:66-70). Dams were euthanized 18 h post infusion, the mammary glands were aseptically dissected, and portions of the gland were used for determination of bacterial load and TNFα concentrations, as described previously (Schmelcher et al., supra).
Statistical analysis: The variables were analyzed as two-factor mixed models with Treatment as the factor and Mouse as random Blocks. This model […] within mouse correlations. Log(TNFα) was used. The variance grouping technique was used for log CFU and log TNFα to correct for variance heterogeneity. Means comparisons were done with Sidak adjusted p-values so that the experiment-wise error was 0.05. Log(TNFα) is back-transformed to the original units for graphing.

[5] = test system: intracellular S. aureus strain UAMS-1 in murine calvaria; test: Ex vivo neonatal mouse calvaria intracellular eradication; format: cell-based
Procedure: (§4) Neonatal mouse whole calvaria were treated for 4 hours with chimeric peptidoglycan hydrolases or buffer alone, 24 hours post inoculation with GFP-expressing S. aureus. Calvaria were embedded in freeze media, sectioned, and subjected to fluorescence imaging. The image shown is a representative figure for triplicate sections of three separate calvaria. FIG. 8b depicts fluorescence intensity from these sections measured in ImageJ and defined as arbitrary fluorescence standardized to the untreated control. Error bars represent SEM of four replicate experiments. FIG. 8c depicts ex-vivo intracellular S. aureus eradication. Infected calvaria were homogenized and CFU were counted post treatment. Error bars represent SEM. FIG. 8d depicts a murine model of staphylococcal osteomyelitis. C57BL/6J mice were anesthetized and their femurs were surgically exposed. A trough was drilled through the bone cortex and the damaged bone sites were inoculated with 1×10^3 CFU S. aureus in agarose beads. After 24 hours, mice were treated (i.m. to site of infection) twice in a 24 h period with PBS or 5 mg/kg of triple fusion K-L or K-L-PTD1. The femurs were removed, homogenized, and plated to quantify the bacterial load. Bars indicate the average CFU recovered (N=6). […] Asterisks represent statistical significance as determined by one-way ANOVA followed by Tukey's posthoc test.
To examine the intracellular uptake and eradication in murine osteoblast-containing tissue samples, both ex vivo calvaria (skull cap), and in vivo femur injury models were tested. Calvaria were isolated from neonatal mice and infected with UAMS-1 strain of S. aureus (1×10^6 bacteria/calvaria) for 2 h at 37° C. in osteoblast growth medium in the absence of antibiotics. Following 3× washes with PBS, calvaria were exposed to 50 μg/ml of gentamicin for 15 min to kill extracellular bacteria and further cultured in gentamicin containing osteoblast growth media. After 24 h later, calvaria were treated with peptidoglycan hydrolases (5 μg/ml) or gentamicin only control for 2 h. Lysis buffer containing 0.05% trypsin and 0.25% Triton X-100 was used to homogenize the calvaria, the homogenates were quantitatively plated on LB agar plates, and the CFU were enumerated after 24 h. The data represents triplicate determinants of two separate experiments.
Calvaria were isolated, and infected as described above using GFP-tagged UAMS-1 strain of S. aureus. Two hours post-infection, calvaria were washed with PBS followed by a 15 minutes treatment with 50 μg/ml gentamicin to kill extracellular bacteria. 24 hours post-infection, calvaria were treated with 5 μg/ml peptidoglycan hydrolases or gentamicin only control for two hours and embedded in Tissue-Tek O.C.T compound (Sakura, Torrance, Calif.). […]

[6] = test system: S. aureus; test: Murine model of staphylococcal osteomyelitis (femur); format: in vivo, C57BL/6J mice; settings: 5 mg/kg i.m. at site of infection, twice in 24 h, N=6
Procedure: as §4, with “A trough was drilled through the bone cortex and the damaged bone sites were inoculated with 1×10^3 CFU S. aureus in agarose beads. After 24 hours, mice were treated (i.m. to site of infection) twice in a 24 h period with PBS or 5 mg/kg of triple fusion K-L or K-L-PTD1.” left out, “load.” for “load. Bars indicate the average CFU recovered (N=6).”
We utilized a previously described (Marriott, supra) murine model of staphylococcal osteomyelitis that reproduces the clinical and gross pathological phases of inflammatory bone diseases, such as human post-traumatic osteomyelitis. […] Asterisks represent statistical significance as determined by one-way ANOVA followed by Tukey's posthoc test.

[7] = test system: TNFα; test: Murine model of mastitis, TNFα response; format: in vivo, C57BL6/SJL mice; settings: mice with mastitis
Procedure: as §3, with “(p<0.05). […]” for “(p<0.05).”
Statistical analysis: The variables were analyzed as two-factor mixed models with Treatment as the factor and Mouse as random Blocks. […]

Substance	intracellular S. aureus CFUs relative to gentamicin only control [1]	intracellular S. aureus CFUs relative to gentamicin only control [2]	turbidity reduction (in vitro lytic) activity [3]	greater CFU reduction than triple fusion K-L in the mastitis model ([4]; in vivo, compared with triple fusion K-L)	bacterial load / clearance of mammary glands (in words) [4]	live bacteria (CFU) recovered from calvaria ([5]; 5 μg/ml for 2 h, homogenized calvaria)	elimination of GFP-labeled intracellular S. aureus (fluorescence) ([5]; 5 μg/ml, 24 hours post-infection, sectioned calvaria)	bacterial load in femur compared to no treatment [6]	TNFα response (in words) [7]
1-Sigma: commercial lysostaphin (Sigma-Aldrich, St. Louis, Mo.)	Neither commercial lysostaphin (1-Sigma; Sigma-Aldrich, St. Louis, Mo.) nor the C-terminal His6-tagged lysostaphin (construct 1) were able to decrease the intracellular CFUs	Neither commercial lysostaphin (1-Sigma; Sigma-Aldrich, St. Louis, Mo.) nor the C-terminal His6-tagged lysostaphin (construct 1) were able to decrease the intracellular CFUs	–	–	–	–	–	–	–
K-L-PTD1: triple fusion K-L with C-terminal PTD 1 (Antp 43-58); SEQ ID NO:53, protein SEQ ID NO:54	–	–	reduced the in vitro activity	~3 orders of magnitude	clearance of the mammary gland to a level equivalent to that of lysostaphin alone or L-PTD1	able to reduce the number of live bacteria recovered from sectioned calvaria	able to eliminate GFP-labeled intracellular S. aureus strain UAMS-1 from murine calvaria	significantly reduced bacterial load as compared to no treatment	–
L-PTD1: lysostaphin-His6 with C-terminal PTD 1 (Antp 43-58); SEQ ID NO:9	–	–	reduced the in vitro activity	–	further decreased the mean bacterial load	–	–	–	further decreased the mean bacterial load and TNFα concentration
